PMC7822030, “Hybrid Inhibitors of DNA Gyrase A and B: Design, Synthesis and Evaluation” (Pharmaceutics, 2020)
Where two headings read alike, the source gives them in different places.

Key:
E. coli topoisomerase IV = molecular target: T1, E. coli topoisomerase IV (Escherichia coli, UniProt P0AFI2+P20083); assay: E. coli topoisomerase IV relaxation assay; format: biochemical; conditions: for Inhibition of topoisomerase IV (in words): relaxation assay
T1 construct: purchased Inspiralis, Norwich, UK
Procedure: (§1) The assay for determination of the IC50 values was performed according to previously reported procedures.
(§2) Briefly, inhibitory activities were determined using supercoiling (for DNA gyrase) and relaxation (for topoisomerase IV) assay kits (Inspiralis, Norwich, UK) on streptavidin-coated 96-well microtiter plates from Thermo Scientific Pierce (Thermo Fisher Scientific, Waltham, MA, USA). First, the plates were rehydrated with Wash Buffer and the biotinylated oligonucleotide TFO1 was then immobilized. After washing off the unbound oligonucleotide with Wash Buffer, the enzyme assay was performed. Into each well was added 24 µL of mixture containing 6 µL of Assay Buffer (containing ATP), 0.75 µL of relaxed (for E. coli DNA gyrase supercoiling assay) or supercoiled (for E. coli topoisomerase IV relaxation assay) pNO1 plasmid and 17.25 µL of water. Additionally, 3 µL of a solution of the inhibitor in 10% DMSO containing 0.008% Tween 20 and 3 µL of enzyme (1.5 U) in Dilution Buffer were also added to the wells. […] The TF buffer was added to terminate the enzymatic reaction and after additional incubation for 30 min at room temperature, which allowed for triplex formation (biotin–oligonucleotide–plasmid), the unbound plasmid was washed off using TF buffer. Promega Diamond dye in T10 buffer was then added. […] Here, the compounds were diluted using 2-fold serial dilution steps of the given compound. GraphPad Prism 6.0 software was used to calculate the IC50 values, which were determined in at least two independent measurements, and their means are given as the final result. […] Dose-response curves can be found in Supplementary Materials.

E. coli ATCC 25922 = assay: MIC broth microdilution, E. coli ATCC 25922; format: cell-based; conditions: Escherichia coli, ATCC25922, read-out: MIC E. coli ATCC #
Excerpt: (§3) E. coli MG1655 originated from the laboratory collection of Dr. Csaba Pál. […] E. coli K-12 BW25113 single-gene knockout mutant lines ΔdapF, ΔmrcB, ΔsurA, ΔacrB and ΔtolC originated form the Keio collection copy owned by the laboratory of Dr. Csaba Pál.
(§4) Cation-adjusted Mueller Hinton II broth (MHBII) was used for growth of the bacteria under standard laboratory conditions, for antimicrobial susceptibility tests, and for selection of resistant variants. To prepare the MHBII broth, 22 g MHBII powder (containing 3 g beef extract, 17.5 g acid hydrolysate of casein, 1.5 g starch; Becton, Dickinson and Co., Franklin Lakes, NJ, USA) was dissolved in 1 L water. MHBII agar was prepared by addition of 14 g agar (Bacto; Molar Chemicals, Halásztelek, Hungary) to 1 L broth.
(§5) Minimum inhibitory concentrations (MICs) were determined using a standard serial broth microdilution technique, according to the Clinical and Laboratory Standards Institute guidelines. […] For Enterococcus sp., the cells were plated in BHI agar plates, and BHI broth was used to determine the MICs. […] Following the dilutions, each well was seeded with 5 × 10^4 bacterial cells. Each measurement was performed in three parallel replicates, and to avoid possible edge effects in the microwell plates, the outside rows (A, H) were filled with sterile medium. Following the inoculations, the plates were covered with the lids and wrapped in polyethylene plastic bags, to minimize evaporation but to allow O2 transfer. […] After incubation, the OD600 of each well was measured using a microplate reader (Synergy 2; Biotek, Winooski, VT, USA).

E. coli BW25113 WT = assay: MIC, E. coli BW25113 wild-type; format: cell-based; conditions: Escherichia coli, BW25113, read-out: Minimum Inhibitory Concentration E. coli BW# WT
Excerpt: as §3, §4, §5

E. coli BW25113 ΔsurA = format: cell-based, Escherichia coli
Excerpt: as §3, §4, §5

E. coli BW25113 ΔtolC = format: cell-based, Escherichia coli; conditions: for MIC change, ΔtolC mutant versus wild-type E. coli BW25113: improvement of MIC in impaired efflux pump mutant
Excerpt: as §3, §4, §5

E. coli BW25113 ΔmrcB = format: cell-based, Escherichia coli
Excerpt: as §3, §4, §5

E. coli BW25113 ΔacrB = format: cell-based, Escherichia coli
Excerpt: as §3, §4, §5

E. coli BW25113 ΔdapF = format: cell-based, Escherichia coli
Excerpt: as §3, §4, §5

P. aeruginosa ATCC 27863 = assay: MIC broth microdilution, P. aeruginosa; format: cell-based; conditions: Pseudomonas aeruginosa
Excerpt: as §3, §4, §5

E. coli MG1655 WT = assay: MIC, E. coli MG1655 wild-type with PAβN; format: cell-based, Escherichia coli; conditions: for MIC: Escherichia coli, MG1655, read-out: Minimum Inhibitory Concentration E. coli MG# WT, 50 µg/mL PAβN, molar conversion in parentheses; for Minimum Inhibitory Concentration E. coli MG1655 WT: in the presence of 50 µg/mL PAβN
Excerpt: as §3, §4
as §5, with “USA). […]” for “USA).”

K. pneumoniae ATCC 10031 = assay: MIC broth microdilution, K. pneumoniae; format: cell-based; conditions: Klebsiella pneumoniae, ATCC10031, read-out: MIC K. pneumoniae ATCC #
Excerpt: as §3, §4, §5

[1] = test system: E. cloacae spp. cloacae ATCC 13047; assay: MIC broth microdilution, E. cloacae; format: cell-based, Enterobacter cloacae; conditions: Enterobacter cloacae, ATCC13047, read-out: MIC E. cloacae spp. cloacae ATCC #
E. coli DNA gyrase = molecular target: T2, E. coli DNA gyrase (Escherichia coli, UniProt P0AES4+P0AES6); assay: E. coli DNA gyrase supercoiling assay; format: biochemical
T2 construct: purchased Inspiralis, Norwich, UK
Procedure: as §1, §2

[2] = test system: E. coli MG1655 GyrB R136C; assay: microbe, parasite or virus in culture; format: cell-based, Escherichia coli; conditions: for MIC: Escherichia coli, MG1655, read-out: Minimum Inhibitory Concentration E. coli MG# GyrB R#C; for Minimum Inhibitory Concentration E. coli MG1655 GyrB R136C: in the presence of 50 µg/mL PAβN
Excerpt: as §3, §4, §5
(§6) These mutated amino acids are the most common sites for target-based resistance in E. coli.

[3] = test system: E. coli MG1655 GyrA S83L, D87N ParC S80I, E84G; assay: microbe, parasite or virus in culture; format: cell-based, Escherichia coli; conditions: for MIC: Escherichia coli, MG1655, read-out: Minimum Inhibitory Concentration E. coli MG# GyrA S83L, D87N ParC S80I, E84G; for Minimum Inhibitory Concentration E. coli MG1655 GyrA S83L, D87N ParC S80I, E84G: in the presence of 50 µg/mL PAβN
Excerpt: as §3, §4, §5, §6

A. baumannii ATCC 17978 = assay: MIC broth microdilution, A. baumannii; format: cell-based; conditions: Acinetobacter baumannii, ATCC17978, read-out: MIC A. baumannii ATCC #
Excerpt: as §3, §4, §5

[4] = molar conversion in parentheses
[5] = ATCC27863, 18 h, read-out: MIC P. aeruginosa ATCC #
[6] = ATCC27863, read-out: MIC P. aeruginosa ATCC #, molar conversion in parentheses, read-out: MIC P. aeruginosa ATCC 27863

Compound	IC50 (E. coli topoisomerase IV) [nM]	Inhibition of topoisomerase IV (in words) (E. coli topoisomerase IV)	MIC (E. coli ATCC 25922; broth microdilution, 18 h) [µg/mL]	MIC (E. coli ATCC 25922; [4]) [µM]	MIC (E. coli BW25113 WT; [4]) [µM]	MIC (E. coli BW25113 WT; wild-type) [µg/mL]	Minimum Inhibitory Concentration E. coli BW25113 ΔsurA (E. coli BW25113 ΔsurA; impaired cell-wall mutant) [µg/mL]	Minimum Inhibitory Concentration E. coli BW25113 ΔsurA (E. coli BW25113 ΔsurA; [4])	Minimum Inhibitory Concentration E. coli BW25113 ΔtolC (E. coli BW25113 ΔtolC; efflux pump mutant) [µg/mL]	Minimum Inhibitory Concentration E. coli BW25113 ΔtolC (E. coli BW25113 ΔtolC; [4])	Minimum Inhibitory Concentration E. coli BW25113 ΔmrcB (E. coli BW25113 ΔmrcB; impaired cell-wall mutant) [µg/mL]	Minimum Inhibitory Concentration E. coli BW25113 ΔmrcB (E. coli BW25113 ΔmrcB; [4])	Minimum Inhibitory Concentration E. coli BW25113 ΔacrB (E. coli BW25113 ΔacrB; efflux pump mutant) [µg/mL]	Minimum Inhibitory Concentration E. coli BW25113 ΔacrB (E. coli BW25113 ΔacrB; [4])	Minimum Inhibitory Concentration E. coli BW25113 ΔdapF (E. coli BW25113 ΔdapF; impaired cell-wall mutant) [µg/mL]	Minimum Inhibitory Concentration E. coli BW25113 ΔdapF (E. coli BW25113 ΔdapF; [4])	MIC (P. aeruginosa ATCC 27863; [5]) [µg/mL]	MIC (P. aeruginosa ATCC 27863; [6]) [µM]	MIC (E. coli MG1655 WT) [µM]	Minimum Inhibitory Concentration E. coli MG1655 WT (E. coli MG1655 WT) [µg/mL]	other results
Cc1[nH]c(C(=O)Nc2nc3ccc(C(=O)N4CCN(c5cc6c(cc5F)c(=O)c(C(=O)O)cn6C5CC5)CC4)cc3s2)c(Cl)c1Cl [Compound 3a, 1-Cyclopropyl-7-(4-(2-(3,4-dichloro-5-methyl-1H-pyrrole-2-carboxamido)benzo[d]thiazole-6-carbonyl)piperazin-1-yl)-6-fluoro-4-oxo-1,4-dihydroquinoline-3-carboxylic acid]	1000 ± 150	low micromolar	2	2.93	5.85	4	4	(5.85 µM)	1	(1.46 µM)	4	(5.85 µM)	4	(5.85 µM)	4	(5.85 µM)	64	93.6	0.73	0.5	MIC change, ΔtolC mutant versus wild-type E. coli BW25113 (E. coli BW25113 ΔtolC): 4 fold; MIC (K. pneumoniae ATCC 10031; broth microdilution, 18 h): 0.5 µg/mL; MIC (K. pneumoniae ATCC 10031; [4]): 0.73 µM; MIC ([1]; broth microdilution, 18 h): 4 µg/mL; MIC [1, 4]: 5.85 µM; IC50 (E. coli DNA gyrase): 450 ± 180 nM; melting point: > 300 °C; MIC [2]: 0.73 µM; Minimum Inhibitory Concentration E. coli MG1655 GyrB R136C [2]: 0.5 µg/mL; MIC [3]: 23.4 µM; Minimum Inhibitory Concentration E. coli MG1655 GyrA S83L, D87N ParC S80I, E84G [3]: 16 µg/mL; MIC (A. baumannii ATCC 17978; broth microdilution, 18 h): 16 µg/mL; MIC (A. baumannii ATCC 17978; [4]): 23.4 µM
Cc1[nH]c(C(=O)Nc2nc3c(OCc4ccccc4)cc(C(=O)N4CCN(c5cc6c(cc5F)c(=O)c(C(=O)O)cn6C5CC5)CC4)cc3s2)c(Cl)c1Cl [Compound 3b, 7-(4-(4-(Benzyloxy)-2-(3,4-dichloro-5-methyl-1H-pyrrole-2-carboxamido)benzo[d]thiazole-6-carbonyl)piperazin-1-yl)-1-cyclopropyl-6-fluoro-4-oxo-1,4-dihydroquinoline-3-carboxylic acid]	> 10000	lack of activity	> 64	> 81	> 81	> 64	>64	(>81.0 µM)	16	(20.3 µM)	>64	(>81.0 µM)	>64	(>81.0 µM)	>64	(>81.0 µM)	> 64	> 81	81	64	MIC (K. pneumoniae ATCC 10031; broth microdilution, 18 h): > 64 µg/mL; MIC (K. pneumoniae ATCC 10031; [4]): > 81 µM; MIC ([1]; broth microdilution, 18 h): > 64 µg/mL; MIC [1, 4]: > 81 µM; IC50 (E. coli DNA gyrase): 3300 ± 1500 nM; melting point: > 300 °C; MIC [2]: 40.5 µM; Minimum Inhibitory Concentration E. coli MG1655 GyrB R136C [2]: 32 µg/mL; MIC [3]: > 81 µM; Minimum Inhibitory Concentration E. coli MG1655 GyrA S83L, D87N ParC S80I, E84G [3]: >64 µg/mL; MIC (A. baumannii ATCC 17978; broth microdilution, 18 h): > 64 µg/mL; MIC (A. baumannii ATCC 17978; [4]): > 81 µM
Cc1[nH]c(C(=O)Nc2nc3c(OCc4ccccc4)cc(C(=O)NCCOCCN4CCN(c5cc6c(cc5F)c(=O)c(C(=O)O)cn6C5CC5)CC4)cc3s2)c(Cl)c1Cl.Cl [Compound 11b, 1-(2-(2-(4-(Benzyloxy)-2-(3,4-dichloro-5-methyl-1H-pyrrole-2-carboxamido)benzo[d]thiazole-6-carboxamido)ethoxy)ethyl)-4-(3-carboxy-1-cyclopropyl-6-fluoro-4-oxo-1,4-dihydroquinolin-7-yl)piperazin-1-ium chloride]	2500 ± 1100	low micromolar	4	4.56	9.11	8	8	(9.11 µM)	1	(1.14 µM)	8	(9.11 µM)	8	(9.11 µM)	8	(9.11 µM)	> 64	> 72.9	1.14	1	MIC change, ΔtolC mutant versus wild-type E. coli BW25113 (E. coli BW25113 ΔtolC): 8 fold; MIC (K. pneumoniae ATCC 10031; broth microdilution, 18 h): 1 µg/mL; MIC (K. pneumoniae ATCC 10031; [4]): 1.14 µM; MIC ([1]; broth microdilution, 18 h): 16 µg/mL; MIC [1, 4]: 18.2 µM; IC50 (E. coli DNA gyrase): 14 ± 9 nM; MIC [2]: 2.28 µM; Minimum Inhibitory Concentration E. coli MG1655 GyrB R136C [2]: 2 µg/mL; MIC [3]: 4.56 µM; Minimum Inhibitory Concentration E. coli MG1655 GyrA S83L, D87N ParC S80I, E84G [3]: 4 µg/mL; MIC (A. baumannii ATCC 17978; broth microdilution, 18 h): 64 µg/mL; MIC (A. baumannii ATCC 17978; [4]): 72.9 µM
